{"source": "paper PMC5085249", "about": "“The Diguanylate Cyclase HsbD Intersects with the HptB Regulatory Cascade to Control Pseudomonas aeruginosa Biofilm and Motility” (PLoS Genetics, 2016)", "molecular_target": "T1, HsbD (PA3343) (Pseudomonas aeruginosa, UniProt Q9HYQ2)", "T1 construct": "His-HsbD overexpressed in E. coli BL21(DE3), whole-cell lysate; native protein 389 aa, six predicted TM domains (52-206), GGDEF domain 252-389; tag kept", "T1 sequence (Q9HYQ2 entry or part of it)": "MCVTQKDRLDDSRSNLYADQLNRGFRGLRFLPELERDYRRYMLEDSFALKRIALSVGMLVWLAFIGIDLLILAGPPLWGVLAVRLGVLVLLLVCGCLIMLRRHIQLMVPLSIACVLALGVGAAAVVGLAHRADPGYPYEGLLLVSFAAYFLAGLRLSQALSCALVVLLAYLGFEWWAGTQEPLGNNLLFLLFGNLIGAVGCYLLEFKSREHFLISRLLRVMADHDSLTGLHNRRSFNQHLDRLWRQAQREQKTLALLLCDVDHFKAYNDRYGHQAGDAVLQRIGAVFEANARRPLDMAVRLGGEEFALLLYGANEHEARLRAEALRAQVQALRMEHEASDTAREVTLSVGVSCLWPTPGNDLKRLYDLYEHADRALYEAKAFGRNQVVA", "test": "DRaCALA (nitrocellulose, […]-labelled ligand)", "type": "binding", "settings": "4 nM 32P-c-di-GMP; E. coli whole-cell lysate; 40 mM Tris pH 7.5, 100 mM NaCl, 10 mM MgCl2; allosteric inhibitory I-site; labelled compound", "data": [{"molecule": "Nc1nc2c(ncn2[C@@H]2O[C@@H]3COP(=O)(O)O[C@H]4[C@@H](O)[C@H](n5cnc6c(=O)[nH]c(N)nc65)O[C@@H]4COP(=O)(O)O[C@H]3[C@H]2O)c(=O)[nH]1", "note": "[c-di-GMP]", "values": [{"measurement": "fraction bound", "result": "Significant c-di-GMP binding was observed with the construct encoding wild-type HsbD"}]}]}
